Data from ChEMBL document CHEMBL1142021, “Aglycon specificity profiling of alpha-glucosidases using synthetic probes” (Bioorg Med Chem Lett, 2005).

Key:
[1] = Inhibition of Flint corn glucosidase (of family 31 alpha-glucosidase) by compound with concentration 1 umol/mI
[2] = species: Homo sapiens; assay: Inhibition of alpha-Galactosidase at 5 umol/mL
[3] = species: Homo sapiens; assay: Inhibition of Glucosidase 2 at 2 umol/mI
[4] = species: Homo sapiens; assay: Inhibition of Glucosidase 2 at 12 umol/mL
[5] = Inhibitory concentration for Saccharomyces cerevisiae glucosidase (of family 13 alpha-glucosidase) at 1 umol/mL
[6] = target: T1, Alpha-glucosidase (Apis mellifera) (UniProt Q17058); assay: Inhibition of family 13 alpha-glucosidase isoform II from honey bee; conditions: concentration not given here
T1 sequence (whole entry): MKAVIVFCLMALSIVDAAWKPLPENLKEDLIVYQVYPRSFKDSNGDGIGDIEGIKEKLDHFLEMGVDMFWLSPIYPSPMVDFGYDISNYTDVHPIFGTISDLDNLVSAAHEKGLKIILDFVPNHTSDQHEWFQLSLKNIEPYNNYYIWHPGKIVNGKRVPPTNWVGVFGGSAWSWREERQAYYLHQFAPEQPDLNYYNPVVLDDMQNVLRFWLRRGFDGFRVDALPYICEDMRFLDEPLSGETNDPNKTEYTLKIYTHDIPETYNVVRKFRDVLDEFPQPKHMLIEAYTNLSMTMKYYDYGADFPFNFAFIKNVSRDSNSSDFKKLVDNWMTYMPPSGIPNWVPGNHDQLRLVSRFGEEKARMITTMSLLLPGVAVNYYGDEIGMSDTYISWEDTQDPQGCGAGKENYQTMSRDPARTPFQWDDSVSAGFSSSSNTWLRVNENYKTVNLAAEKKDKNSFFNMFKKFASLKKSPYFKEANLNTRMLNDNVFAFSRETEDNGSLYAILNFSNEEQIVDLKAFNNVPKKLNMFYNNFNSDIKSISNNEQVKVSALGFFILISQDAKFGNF

[7] = target: T2, Mannosyl-oligosaccharide glucosidase (Homo sapiens) (UniProt Q13724); assay: Inhibition of Glucosidase 1(of Endoplasmic reticulum processing alpha-glucosidase) at 2 umol/mL
T2 sequence (whole entry): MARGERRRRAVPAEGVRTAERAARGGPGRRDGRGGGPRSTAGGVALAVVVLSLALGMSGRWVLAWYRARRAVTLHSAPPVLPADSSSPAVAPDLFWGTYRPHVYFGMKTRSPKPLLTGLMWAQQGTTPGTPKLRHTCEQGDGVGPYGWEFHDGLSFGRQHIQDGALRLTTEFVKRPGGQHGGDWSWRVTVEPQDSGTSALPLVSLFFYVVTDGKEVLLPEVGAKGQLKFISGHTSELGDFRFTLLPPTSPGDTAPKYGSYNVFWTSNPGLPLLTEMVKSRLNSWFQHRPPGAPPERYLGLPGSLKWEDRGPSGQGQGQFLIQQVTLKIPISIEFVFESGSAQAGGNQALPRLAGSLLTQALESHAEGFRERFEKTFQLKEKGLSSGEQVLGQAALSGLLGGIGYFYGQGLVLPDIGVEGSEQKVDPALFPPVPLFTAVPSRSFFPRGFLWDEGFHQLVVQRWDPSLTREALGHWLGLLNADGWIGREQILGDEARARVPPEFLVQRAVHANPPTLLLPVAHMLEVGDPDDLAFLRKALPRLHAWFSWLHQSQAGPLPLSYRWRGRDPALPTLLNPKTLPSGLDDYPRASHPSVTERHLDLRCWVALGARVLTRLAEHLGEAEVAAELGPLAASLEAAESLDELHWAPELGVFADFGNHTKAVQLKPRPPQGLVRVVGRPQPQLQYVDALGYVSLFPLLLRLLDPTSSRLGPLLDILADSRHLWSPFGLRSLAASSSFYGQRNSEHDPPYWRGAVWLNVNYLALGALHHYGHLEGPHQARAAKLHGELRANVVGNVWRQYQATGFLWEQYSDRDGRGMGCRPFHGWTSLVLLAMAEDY

[8] = target: T3, Cytosolic beta-glucosidase (Homo sapiens) (UniProt Q9H227); assay: Inhibition of beta-Glucosidase at 1 umol/mL
T3 sequence (whole entry): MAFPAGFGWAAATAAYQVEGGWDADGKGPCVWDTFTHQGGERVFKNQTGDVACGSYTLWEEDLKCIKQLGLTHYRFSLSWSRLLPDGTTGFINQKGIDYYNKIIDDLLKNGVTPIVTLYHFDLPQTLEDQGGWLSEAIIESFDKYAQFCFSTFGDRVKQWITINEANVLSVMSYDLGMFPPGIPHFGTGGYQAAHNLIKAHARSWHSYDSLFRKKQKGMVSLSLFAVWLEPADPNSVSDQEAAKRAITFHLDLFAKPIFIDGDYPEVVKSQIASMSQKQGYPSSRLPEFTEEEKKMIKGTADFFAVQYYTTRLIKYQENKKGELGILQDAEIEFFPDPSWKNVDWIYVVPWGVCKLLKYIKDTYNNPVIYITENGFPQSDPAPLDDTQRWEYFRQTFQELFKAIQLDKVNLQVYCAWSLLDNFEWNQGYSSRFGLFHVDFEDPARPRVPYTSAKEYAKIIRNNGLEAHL

[9] = Competitive Inhibition constant for Saccharomyces cerevisiae glucosidase
[10] = Inhibition of beta-Mannosidase; conditions: Homo sapiens; concentration not given here
[11] = Inhibitory concentration of Bacillus stearothermophilus glucosidase (of family 13 alpha-glucosidase) at 1 umol/mL; design: species or system Geobacillus stearothermophilus
[12] = Competitive Inhibition constant for Bacillus stearothermophilus glucosidase; design: species or system Geobacillus stearothermophilus
[13] = target: T1, Alpha-glucosidase (Apis mellifera); assay: Inhibition of family 13 alpha-glucosidase isoform I from honey bee; conditions: concentration not given here

Row | SMILES | inhibition [1] | inhibition [2] | inhibition [3] | further results
1 | O=C(CCCCCO)NCC1OC(CO)C(O)C(O)C1O (stereo not given) | 44.6% | < 1% | < 1% | –
2 | O=C(NCC1OC(CO)C(O)C(O)C1O)c1ccccc1 (stereo not given) | 49.2% | < 1% | 5.9% | IC50 [5]: 449 µM; inhibition [6]: 12.3%; inhibition [7]: 18.2%; inhibition [8]: < 1%; Ki [9]: 500 µM; inhibition [10]: < 1%
3 | O=C(CCCCO)NCC1OC(CO)C(O)C(O)C1O (stereo not given) | 37% | < 1% | < 1% | IC50 [5]: 55.5 µM; IC50 [11]: 415 µM; Ki [9]: 130 µM; Ki [12]: 580 µM
4 | O=C(CCCO)NCC1OC(CO)C(O)C(O)C1O (stereo not given) | 18.5% | < 1% | < 1% | inhibition [13]: < 1%

More lines, main results first:

Row | inhibition [1] | inhibition [2] | inhibition [3] | SMILES | further results
5 | 5.6% | < 1% | < 1% | CC(C)(C)C(=O)NCC1OC(CO)C(O)C(O)C1O (stereo not given) | –
6 | 31% | < 1% | < 1% | CC(=O)NCC1OC(CO)C(O)C(O)C1O (stereo not given) | –
7 | 29.1% | < 1% | < 1% | O=C(CO)NCC1OC(CO)C(O)C(O)C1O (stereo not given) | –
8 | 14.1% | < 1% | – | O=C(CCO)NCC1OC(CO)C(O)C(O)C1O (stereo not given) | inhibition [4]: < 1%
